Experimental data taken from patent US7582639B2, “N-deacetylthiocolchicine derivatives, their use and pharmaceutical formulations containing them” (priority 2004, dated 2009).
Where two headings read alike, the source gives them in different places.

How the values were obtained:
Assay in all cases: cells
Assay type in all cases: cell-based
Widr (colon) = conditions: after 72 hours, concentration that inhibits cell growth by 50% compared with non treated cells, read-out: IC50 (nM) ± S.E. Widr (colon)
Description: (§1) The activity of the compounds of formula I was evaluated on a large number of tumour cells expressing different resistance.
(§2) Cytotoxic activity was evaluated according to the procedure described by M. C.

[1] = system: A2780/pt (resistant to tocisplatin); conditions: after 72 hours, concentration that inhibits cell growth by 50% compared with non treated cells, read-out: IC50 (nM) ± S.E. A2780/pt (resistant to tocisplatin)
Description: as §1, §2

[2] = system: A2780/top (resistant to topotecan); conditions: after 72 hours, concentration that inhibits cell growth by 50% compared with non treated cells, read-out: IC50 (nM) ± S.E. A2780/top (resistant to topotecan)
Description: as §1, §2

A2780 (Ovarian) = conditions: after 72 hours, concentration that inhibits cell growth by 50% compared with non treated cells, read-out: IC50 (nM) ± S.E. A2780 (Ovarian)
Description: as §1, §2

MCF7 (breast) = conditions: after 72 hours, concentration that inhibits cell growth by 50% compared with non treated cells, read-out: IC50 (nM) ± S.E. MCF7 (breast)
Description: as §1, §2

MCF7-R (MDR+) = conditions: after 72 hours, concentration that inhibits cell growth by 50% compared with non treated cells, read-out: IC50 (nM) ± S.E. MCF7-R (MDR+)
Description: as §1, §2

A2780/dx (Pgp+) = conditions: after 72 hours, concentration that inhibits cell growth by 50% compared with non treated cells, read-out: IC50 (nM) ± S.E. A2780/dx (Pgp+)
Description: as §1, §2

Compound	IC50 (Widr (colon))	IC50 [1]	IC50 [2]	IC50 (A2780 (Ovarian))	IC50 (MCF7 (breast))	IC50 (MCF7-R (MDR+))	IC50 (Widr (colon); Homo sapiens, WiDr)	IC50 ([1]; Homo sapiens, A2780)	IC50 ([2]; Homo sapiens, A2780)	IC50 (A2780/dx (Pgp+))	IC50 (MCF7 (breast); Homo sapiens, MCF7)	IC50 (MCF7-R (MDR+); Homo sapiens, MCF7R)	IC50 (A2780 (Ovarian); Homo sapiens, A2780)
N-Deacetylthiocolchicine 1,4-phenylenediamine bis-urea [E.g. 4]	650 ± 40 nM	331 ± 63 nM	152 ± 36 nM	252 ± 38 nM	–	–	–	–	–	–	–	–	–
3,5-Benzenedicarboxylic acid bis-(N-deacetylthiocolchicine)amide [E.g. 3]	48 ± 24 nM	23 ± 4.6 nM	5.5 ± 0.1 nM	8 ± 5.6 nM	1.5 ± 0.1 nM	108 ± 14 nM	–	–	–	–	–	–	–
COc1cc2c(c(OC)c1OC)-c1ccc(SC)c(=O)cc1[C@@H](NC(=O)c1cncc(C(=O)N[C@H]3CCc4cc(OC)c(OC)c(OC)c4-c4ccc(SC)c(=O)cc43)c1)CC2 [E.g. 1, 3,5-Pyridinedicarboxylic acid bis-(N-deacetylthiocolchicine)amide]	–	–	–	–	–	–	25 ± 26.4 nM	3.7 ± 0.6 nM	6.9 ± 4.2 nM	806 ± 286 nM	0.7 ± 0.1 nM	72 ± 4.3 nM	3 ± 0.4 nM
trans-1,4-Cyclohexanedicarboxylic acid bis-(N-deacetylthiocolchicine)amide [E.g. 2]	230 ± 166 nM	26 ± 1 nM	32 ± 24 nM	37 ± 5 nM	14 ± 0.9 nM	135 ± 11 nM	–	–	–	–	–	–	–
